# Measured values from patent US20250129083A1, “IMIDAZOTETRAZINE COMPOUNDS AND TREATMENT OF TMZ-RESISTANT CANCERS” (THE BOARD OF TRUSTEES OF THE UNIVERSITY OF ILLINOIS, priority 2022, published 2025).
# Like-named read-outs stand apart in the source and are kept apart here.
# Assays:
# [1] = system: T98G GBM cell line; test: Cell viability assay (Alamar Blue, 7 days), T98G; type: cell-based, human
# Method: (§1) Cell Culture and Reagents. All cell lines were grown in a 37° C., 5% CO2, humidified environment, in media containing 1% penicillin/streptomycin. Stable cell line generation of GL261 MGMT+ was purchased from Creative Biogene. Cell culture conditions are as follows: cell lines U87, T98G, and RKO were grown in EMEM with 10% FBS. D54, GL261, GL261 MGMT+, and U118MG cell lines were grown in DMEM with 10% FBS. HCT116 cells were grown in RMPI with 10% FBS. D341 Med cells were grown in EMEM with 20% FBS. Temozolomide (TMZ) was purchased from AK Scientific. TMZ analogues were synthesized as described below. Compounds were dissolved in DMSO (1% final concentration, Fisher Chemical) for cell culture studies.
# (§2) Cell Viability Assays. Cells were harvested, seeded in a 96-well plate and allowed to adhere. After three hours, compound was added to each well in DMSO (1% final concentration). Cells were incubated for seven days (unless otherwise noted) before viability was assessed by the Alamar Blue assay. Raptinal (20 μM) was used as a dead control.
# [2] = system: U87 GBM cell line; test: Cell viability assay (Alamar Blue, 7 days), U87; type: cell-based, human
# Method: as §1, §2
# Plated 1500 c/w for GL261; 600 c/w for U87; 600 c/w for U118MG; 1500 c/w for GL261 MGMT+ Incubated ovn and added 1 μL of compound in DMSO the next day. Incubated over 7 days; added Alamar Blue to assess cell viability and used 10 μM Raptinal as dead control. Error is SEM, n=3.
# [3] = system: linearized pBR322 plasmid DNA; settings: purified linearized DNA, 15 hours at 37° C.
# Source text: The DNA was subsequently denatured and the sample was eluted on a 1% agarose gel. Interstrand DNA cross-linkers like cisplatin prevent the full denaturation of double-stranded DNA, while DNA alkylating agents like MMS or TMZ cause DNA streaking due to shorter DNA fragments that are formed upon alkaline denaturation of abundantly alkylated DNA.
# Procedure was adapted from Healy et al. (61) In brief, pBR322 plasmid DNA was linearized with EcoRI (New England BioLabs) in NEB EcoRI buffer (New England BioLabs) according to the manufacturer's instructions. The cut plasmid DNA was purified using a PCR cleanup kit (QIAquick PCR Purification Kit, Qiagen) and eluted into DNA buffer (10 mM Tris Cl, pH 8.5). The concentration of linearized DNA was quantified by measuring absorbance on a NanoDrop 2000 UV-Vis Spectrophotometer (Thermo Fisher). For each reaction, compound (in DMSO, 5% v/v) was added to DNA (150 ng) in DNA buffer (total volume 10 L) and incubated at 37° C. for the indicated time. Upon completion, 30 L DNA denaturation buffer (60 mg/mL sucrose, 10 mg/mL NaOH, and 0.4 mg/mL bromophenol blue in water) was added to each sample (the same buffer without NaOH was added to non-denatured controls). […] Gels were imaged using a Gel Dox XR+ system (Bio-Rad).
# [4] = Hepatic metabolism: stability in mouse liver microsomes; type: in vitro ADME; settings: for Stability (2 h, with MLM): percentage remaining relative to t0, mouse liver microsomes, SEM, n ≥ 2; for Stability (2 h, no MLM): percentage remaining, microsomes replaced with PBS
# [5] = Hydrolytic stability studies; type: physicochemical; settings: PBS; for Hydrolytic stability: percentage of prodrug remaining after 2 hours: pH 7.4, 37° C., HPLC; for half-life at 100 μM: 37° C.
# Method: Hydrolytic Stability Studies. Compound (100 μM) was incubated at 37° C. in PBS at pH 7.4 (unless otherwise noted). At the indicated time point, an aliquot was collected and analyzed by HPLC. Compound peaks were integrated and compared to the integration at to calculate the percentage of prodrug remaining.
# [6] = system: expanded panel of GBM cell lines with or without MGMT expression; test: Cell viability in expanded panel of GBM cell lines; type: cell-based; settings: 168 h; all cell lines, with or without MGMT; 7 days; read-out: IC50 values across expanded panel of GBM cell lines
# Method: FIG. 1A-C. Selection and evaluation of MGMT-independent imidazotetrazines. (A) IC50 values (M, 7 days) of TMZ and compound 10 in an expanded panel of GBM cell lines. Cell viability was assessed via the Alamar Blue assay, n≥3, error is SEM. (B) Hydrolytic stability of TMZ at pH 7, 7.4, and 8. Percentage of prodrug remaining was quantified by HPLC, n≥2. (C) Hydrolytic stability of compound 10 at pH 7, 7.4, and 8. Percentage of prodrug remaining was quantified by HPLC, n≥2.
# FIG. 2A-F. (A) 7 day IC50 values (M) of compound 10 and CPZ in an expanded panel of GBM cell lines. Cell viability was assessed via the Alamar Blue assay, n≥3, error is SEM. (B-E) 7 day dose-response curves of TMZ and CPZ in cell lines with variable MGMT and MMR status. Error is SEM, n≥3. (F) Killing kinetics of CPZ compared to TMZ in the U87 cell line. Cells were treated with compound once and viability was assessed every 24 hours via Alamar Blue assay. Error is SEM, n≥2.
# as §2
# [7] = in vivo; settings: CD-1 IGS, mouse, brain and serum, iv, 25 mg/kg
# Method: Biodistribution and Toxicity Studies. […] Brain tissue and blood were collected from each mouse and immediately acidified to prevent prodrug degradation. The concentration of each compound in the serum (FIG. 4A) and brain (FIG. 4B) were quantified by LC-MS/MS.
# CD-1 IGS mice were administered compound in 5% DMSO, 10% Tween-20, and 85% SPE-PCD in sterile water (30% w/v) at 25 mg/kg via lateral tail vein injection. Fifteen minutes post injection, mice were sacrificed and blood was collected by lacerating the right auricle with iris scissors. An 18 gauge angiocatheter was inserted through the left ventricle, and all residual circulatory volume was removed by perfusing 0.9% saline solution via an analog peristaltic pump. Blood samples were immediately centrifuged at 13,000 rcf for five minutes and the supernatant collected and acidified with 8.5% aqueous H3PO4. Brains were harvested from the cranial vault, acidified with 0.3% aqueous H3PO4 and flash frozen. Homogenized brain samples were centrifuged twice at 13,000 rcf for ten minutes and supernatant and tissue debris were separated. The resultant supernatant was analyzed, along with plasma, by LC-MS/MS to determine compound concentrations.
# [8] = Homo sapiens, T98G, 168 h, MGMT (+), Alamar Blue, error SEM, n ≥ 3, read-out: Seven-day IC50, T98G
# [9] = MGMT (+), Alamar Blue, error SEM, n ≥ 3, read-out: Seven-day IC50, T98G
# [10] = Homo sapiens, 168 h, MGMT (−), Alamar Blue, error SEM, n ≥ 3, read-out: Seven-day IC50, U87
# [11] = Homo sapiens, 168 h, MGMT (−) MMR (+), 600 c/w, SEM, n=3, read-out: Activity, U87
# [12] = Homo sapiens, T98G, 168 h, MGMT (+) MMR (+), read-out: Activity, T98G
smiles,measurement,setting,value
"COc1ccc(-n2nnc3c(C(N)=O)ncn3c2=O)cc1 [Compound 7, 3-(4-methoxyphenyl)-4-oxo-3,4-dihydroimidazo[5,1-d][1,2,3,S]tetrazine-8-carboxamide]",IC50,[1]; [8],< 100 µM
same,IC50,[1]; [9],60 ± 10 µM
"CC#CCn1nnc2c(C(N)=O)ncn2c1=O [Compound 19, 3-(but-2-yn-1-yl)-4-oxo-3,4-dihydroimidazo[5,1-d][1,2,3,5]tetrazine-8-carboxamide]",IC50,[2]; [10],37 µM
same,IC50,[1]; [8],110 µM
same,DNA alkylation (streaking on gel),[3],Trace DNA alkylation
same,DNA interstrand cross-linking,[3],definitively absent
"CCn1nnc2c(C(N)=O)ncn2c1=O [Compound 2, 3-ethyl-4-oxo-3,4-dihydroimidazo[5,1-d][1,2,3,5]tetrazine-8-carboxamide]",IC50,[2]; [10],470 µM
same,IC50,[1]; [8],> 1000 µM
"CCCn1nnc2c(C(N)=O)ncn2c1=O [Compound 3, 4-oxo-3-propyl-3,4-dihydroimidazo[5,1-d][1,2,3,5]tetrazine-8-carboxamide]",IC50,[2]; [10],> 1000 µM
same,IC50,[1]; [8],> 1000 µM
same,DNA alkylation (streaking on gel),[3],No evidence of DNA alkylation
"NC(=O)c1ncn2c(=O)[nH]nnc12 [Compound 1, 4-oxo-3,4-dihydroimidazo[5,1-d][1,2,3,5]tetrazine-8-carboxamide]",IC50,[2]; [10],> 1000 µM
same,IC50,[1]; [8],> 1000 µM
"CN(C)C(=O)c1ncn2c(=O)n(C)nnc12 [N,N-DiMe-TMZ, reference compound]","Stability (2 h, with MLM)",[4],81 ± 2%
same,"Stability (2 h, no MLM)",[4],92 ± 3%
"CC(C)(C)Cn1nnc2c(C(N)=O)ncn2c1=O [Compound 6, 3-neopentyl-4-oxo-3,4-dihydroimidazo[5,1-d][1,2,3,5]tetrazine-8-carboxamide]",IC50,[2]; [10],> 1000 µM
same,IC50,[1]; [8],> 1000 µM
"NC(=O)c1ncn2c(=O)n(CNC(=O)c3ccccc3)nnc12 [Compound 12, 3-(benzamidomethyl)-4-oxo-3,4-dihydroimidazo[5,1-d][1,2,3,5]tetrazine-8-carboxamide]",IC50,[2]; [10],240 ± 20 µM
same,IC50,[1]; [8],580 ± 100 µM
"C#CCn1nnc2c(C(=O)NC)ncn2c1=O [Compound 16, N-methyl-4-oxo-3-(prop-2-yn-1-yl)-3,4-dihydroimidazo[5,1-d][1,2,3,5]tetrazine-8-carboxamide]",IC50,[2]; [11],40 ± 20 µM
same,IC50,[1]; [12],87 ± 7 µM
same,Hydrolytic stability: percentage of prodrug remaining after 2 hours,[5],18%
"NC(=O)c1ncn2c(=O)n(CCCl)nnc12 [MTZ, 3-(2-chloroethyl)-4-oxo-3,4-dihydroimidazo[5,1-d][1,2,3,5]tetrazine-8-carboxamide, reference compound]",IC50,[2]; [10],30 µM
same,IC50,[1]; [8],85 ± 9 µM
CC#CCn1nnc2c(C(N)=O)ncn2c1=O [But],"Stability (2 h, with MLM)",[4],89 ± 3%
same,"Stability (2 h, no MLM)",[4],85 ± 1%
"C#CCn1nnc2c(C(=O)N(C)C)ncn2c1=O [Compound 17, N,N-dimethyl-4-oxo-3-(prop-2-yn-1-yl)-3,4-dihydroimidazo[5,1-d][1,2,3,5]tetrazine-8-carboxamide]",IC50,[2]; [11],20 ± 5 µM
same,IC50,[1]; [12],40 ± 5 µM
same,Hydrolytic stability: percentage of prodrug remaining after 2 hours,[5],27%
"NC(=O)c1ncn2c(=O)n(COc3ccccc3)nnc12 [Compound 11, 4-oxo-3-(phenoxymethyl)-3,4-dihydroimidazo[5,1-d][1,2,3,5]tetrazine-8-carboxamide]",IC50,[2]; [10],< 40 µM
same,IC50,"[2]; MGMT (−), Alamar Blue, error SEM, n ≥ 3, read-out: Seven-day IC50, U87",21 ± 3 µM
same,IC50,[1]; [8],< 40 µM
same,IC50,[1]; [9],35 ± 1 µM
"CC(C)(C)n1nnc2c(C(N)=O)ncn2c1=O [Compound 5, 3-(tert-butyl)-4-oxo-3,4-dihydroimidazo[5,1-d][1,2,3,5]tetrazine-8-carboxamide]",IC50,[2]; [10],570 ± 30 µM
same,IC50,[1]; [8],> 1000 µM
"C=CCn1nnc2c(C(N)=O)ncn2c1=O [Compound 9, 3-allyl-4-oxo-3,4-dihydroimidazo[5,1-d][1,2,3,5]tetrazine-8-carboxamide]",IC50,[2]; [10],220 ± 60 µM
same,IC50,[1]; [8],320 ± 10 µM
same,DNA alkylation (streaking on gel),[3],No evidence of DNA alkylation
"C=CC=O [acrolein, reference compound]",DNA alkylation (streaking on gel),[3],no evidence of alkylation
same,DNA interstrand cross-linking,[3],interstrand cross-linking
"CC(C)n1nnc2c(C(N)=O)ncn2c1=O [Compound 4, 3-isopropyl-4-oxo-3,4-dihydroimidazo[5,1-d][1,2,3,5]tetrazine-8-carboxamide]",IC50,[2]; [10],> 1000 µM
same,IC50,[1]; [8],> 1000 µM
"C#CCn1nnc2c(C(N)=O)ncn2c1=O [Compound 10, 4-oxo-3-(prop-2-yn-1-yl)-3,4-dihydroimidazo[5,1-d][1,2,3,5]tetrazine-8-carboxamide]",IC50,[2]; [10],29 µM
same,IC50,[1]; [8],77 µM
same,IC50,[6],< 100 µM
same,half-life at 100 μM,"[5]; pH 7, calculated from hydrolytic stability data, read-out: Half-life, pH 7",97 ± 5 min
same,Hydrolytic stability: percentage of prodrug remaining after 2 hours,[5],8%
same,half-life at 100 μM,"[5]; pH 7.4, calculated from hydrolytic stability data, read-out: Half-life, pH 7.4",~30 min
same,half-life at 100 μM,"[5]; pH 8, calculated from hydrolytic stability data, read-out: Half-life, pH 8",15 ± 1 min
same,Kp at 15 min,[7],0.06 ± 0.01
